Data from patent publication US10654815B2, “Urea compound and preparation method and application thereof” (SHENZHEN CHIPSCREEN BIOSCIENCES CO., LTD., priority 2016, dated 2020).

Assays:
PD-1/PD-L1 binding = target: T1, PD-1/PD-L1 binding (UniProt Q9NZQ7); test: In-vitro PD-1/PD-L1 binding inhibition (HTRF); set-up: species or system human; details: His-PD-1 100 nM, PD-L1-Fc 2 nM final, read-out: IC50 on inhibiting PD-1/PD-L1 binding in-vitro
T1 construct: fused on or other part: human IgG Fc (hFc tag) fused to PD-L1
Source text: Main Principle of the Experiment (HTRF)
Homogeneous Time-Resolved Fluorescence (HTRF): The PD-1 protein carried an His tag and the Fc fusion protein of its ligand PD-L1 carried an hFc tag. An anti-hFc antibody labeled with a chelating marker of Eu element and an anti-His antibody labeled with XL66 were respectively combined with two corresponding tags. After laser excitation (320 nm), energy was transferred from the donor Eu to the acceptor XL665, so that the XL665 emitted light (665 nm). […] The basic detection principle was as follows (see FIG. 3):
The His-tagged human recombinant PD-1 protein (Cat#: 80448-R08H-100) and human recombinant PD-L1-Fc fusion protein (Cat#: 90251-CO2H-100) were purchased from Sino Biological Inc., and the anti-hFc-Eu3^+ and anti-His-XL665 antibody were purchased from Cisbio. Other related reagents such as dilution buffer, detection buffer were all purchased from Cisbio. The fluorescence detection instrument Tecan (Spark 10M) was purchased from Tecan, Switzerland.
The experimental process was carried out in accordance with the procedure required by the instruction manual for the test reagent […]. The process was as follows:
(1) Preparation of the experiment: The test compound was diluted to a different concentration gradient with a dilution buffer (the maximum final concentration was 10 μM in 20 μL final reaction system), the His-PD-1 protein was diluted to 800 nM (the final concentration was 100 nM in 20 μL final reaction system), and the PD-L1-Fc fusion protein was diluted to 16 nM (the final concentration was 2 nM). The anti-His-XL665 antibody and the anti-hFc-Eu^3+ antibody were diluted 20-fold and 100-fold, respectively, with the test diluent according to the reagent requirements.
(2) 5 μL of the test compound, 2.5 μL of PD-L1 protein and 2.5 μL of PD-1 protein solution were evenly mixed, and then reacted at room temperature for 15 min. Subsequently, 5 μL of anti-His-XL665 antibody and 5 μL of anti-hFc-Eu^3+ antibody were added to the system, and the incubation was continued for 3 hours followed by detection.
(3) At the same time of detection of the reaction, control groups were set, including a 0-inhibited positive control to which no test compound was added, and a negative control to which no PD-1 protein was added. All tests were run in duplicate.
(4) The fluorescence signal of each well was detected by a fluorescence detector Tecan (Spark 10M) with an excitation wavelength of 320 nm and detected emission wavelengths of 620 nm and 665 nm, respectively. The intensity of PD-1/PD-L1 binding to each other referred to the fluorescence signal ratio Em665/Em620.
(5) Formula for calculating the binding inhibition rate of test compounds: inhibition rate (%)=[1−(ratio of fluorescence signals of detection holes−negative control)/(ratio of fluorescence signals of 0-inhibited positive control−negative control)×100%. After calculating the binding inhibition rate of the test compounds with different concentration gradients, the 50% inhibitory concentration (IC50) was further calculated.

[1] = system: T cell leukemia cell line (Jurkat cell); test: Cytotoxic activity, MTS assay in T cell line; type: cell-based; details: Homo sapiens, Jurkat cells, compound 2 μM, 72 h, relative to solvent control (DMSO)
Source text: In order to rule out the biological function changes of T cell caused by cytotoxic effects of the compounds themselves, MTS assay was used as a routine cytotoxicity detection method. The basic principle was that the dehydrogenase in the living cell mitochondria was capable of metabolizing and reducing the new type yellow […] compound MTS to formazan. The amount of formazan product measured at 490 nm absorbance (OD) was directly proportional to the number of viable cells in the culture, and thus whether the test compound itself had the ability of inhibiting cell growth or killing cells can be judged basing on the OD value.
In this experiment, the T cell leukemia cell line (Jurkat cell) was evaluated for its cell growth activity according to the MTS assay.
The MTS was carried out in a 96-well plate according to a routine experimental procedure.
Cell lines were inoculated into a 96-well plate at an appropriate concentration (approximately 20,000 cells/well), test compounds (final concentration 2 μM) were added, and at the same time solvent control (DMSO) and negative control wells were set, and the well was set in triplicate. The cells were further cultured for 72 h followed by detection.
After the culture, 20 μL of the a pre-prepared mixture of MTS and PMS (mixed in a ratio of 20:1) was added directly to the culture well, and incubated in a 37° C. incubator for 2 h, and then detection was conducted using a microplate reader (490 nm).
The background value of the negative control was subtracted, and the relative cell activity (%) of the test compound on cell growth=(OD value of the test well/OD value of the solvent control well)×100%.

[2] = system: PD-1/PD-L1 interaction in human peripheral mononuclear cells (PBMC); test: PD-1 signal inhibition at cellular level: IL-2 secretion of SEB-stimulated PBMC (ELISA); type: cell-based; details: SEB 200 ng/mL-stimulated volunteer PBMC, compound 2 μM, 96 h; compared to anti-human PD-1 antibody (5 μg/mL)

Row | IC50 (PD-1/PD-L1 binding) [nM] | Structure (SMILES) | activity at 2 µM [1] [%] | Activity of promoting IL-2 (%) [2] [%]
1 | 1710 | Cc1c(COc2ccc(CNCCNC(=O)NCCN3CCOCC3)c(OCc3cccc(C#N)c3)c2)cccc1-c1ccccc1 [Compound I-1, 1-((2-(2-(3-cyanophenyl)methoxy-4-(2-methyl-(1,1′-diphenyl)-3-yl-methoxy))benzylamino)-2-ethyl)-3-(2-(N-morpholine)ethyl)urea] | 102 | 
2 | 581 | Cc1c(COc2ccc(CNCCNC(=O)NCCO)c(OCc3cccc(C#N)c3)c2)cccc1-c1ccccc1 [Compound I-2, 1-((2-(2-(3-cyanophenyl)methoxy-4-(2-methyl-(1,1′-diphenyl)-3-yl-methoxy))benzylamino)-2-ethyl)-3-(2-hydroxyethyl)urea] | 100 | 
3 | 3120 | Cc1c(COc2ccc(CNCCNC(=O)N[C@@H](COC(C)(C)C)C(=O)OC(C)(C)C)c(OCc3cccc(C#N)c3)c2)cccc1-c1ccccc1 [Compound I-3, 1-((2-(2-(3-cyanophenyl)methoxy-4-(2-methyl-(1,1′-diphenyl)-3-yl-methoxy))benzylamino)-2-ethyl)-3-(2-tert-butyl-O-tert-butyl-L-serinate-2-yl)urea] | 99.7 | 
4 | 37.5 | Cc1cc(CNCCNC(=O)NCCO)c(OCc2cncc(C#N)c2)cc1OCc1cccc(-c2ccc3c(c2)OCCO3)c1C#N [Compound I-4] | 93.2 | 
5 | 61 | Cc1cc(CNCCNC(=O)NCCN2CCOCC2)c(OCc2cncc(C#N)c2)cc1OCc1cccc(-c2ccc3c(c2)OCCO3)c1C#N [Compound I-8] | 95.1 | 
6 | 28.1 | Cc1cc(CNCCOCCNC(=O)NCCS(C)(=O)=O)c(OCc2cncc(C#N)c2)cc1OCc1cccc(-c2ccc3c(c2)OCCO3)c1C#N [Compound I-9] | 99.6 | 
7 | 73.3 | Cc1cc(CNCCOCCNC(=O)NCCN(C)C)c(OCc2cncc(C#N)c2)cc1OCc1cccc(-c2ccc3c(c2)OCCO3)c1C#N [Compound I-10] | 97.1 | 
8 | 49.1 | Cc1cc(CNCCNC(=O)NCCS(C)(=O)=O)c(OCc2cncc(C#N)c2)cc1OCc1cccc(-c2ccc3c(c2)OCCO3)c1C#N [Compound I-12] | 91.6 | 
9 | 15.8 | Cc1cc(CNCCNC(=O)N[C@@H](CO)C(=O)O)c(OCc2cncc(C#N)c2)cc1OCc1cccc(-c2ccc3c(c2)OCCO3)c1C#N [Compound I-13] | 91.1 | 
10 | 197 | C=CC(=O)NCCNC(=O)NCCNCc1cc(C)c(OCc2cccc(-c3ccc4c(c3)OCCO4)c2C#N)cc1OCc1cncc(C#N)c1 [Compound I-14] | 102 | 

Row | Structure (SMILES) | IC50 (PD-1/PD-L1 binding) [nM] | activity at 2 µM [1] [%] | Activity of promoting IL-2 (%) [2] [%]
11 | Cc1cc(CNCCNC(=O)NC(CO)(CO)CO)c(OCc2cncc(C#N)c2)cc1OCc1cccc(-c2ccc3c(c2)OCCO3)c1C#N [Compound I-5] | 36.4 | 94.6 | 53
12 | C=C(NC(=O)NCCNCc1cc(C)c(OCc2cccc(-c3ccc4c(c3)OCCO4)c2C#N)cc1OCc1cncc(C#N)c1)C(=O)O [Compound I-6] | 70.2 | 92.1 | 56.3
13 | Cc1cc(CNCCOCCNC(=O)NCCO)c(OCc2cncc(C#N)c2)cc1OCc1cccc(-c2ccc3c(c2)OCCO3)c1C#N [Compound I-7] | 43.7 | 94.5 | 58.1
14 | Cc1cc(CNCCNC(=O)NCCN(C)C)c(OCc2cncc(C#N)c2)cc1OCc1cccc(-c2ccc3c(c2)OCCO3)c1C#N [Compound I-11] | 76.1 | 95.6 | 51.7
